Experimental data taken from patent US20250236627A1, “CERTAIN OCTAHYDROFURO[3,4- B]PYRAZINES AS GLP-1 RECEPTOR MODULATORS” (ASTRAZENECA AB, priority 2021, published 2025).
pEC50: −log10 of the molar value.

Assays:
human GLP-1R receptor = biological target: T1, human GLP-1R receptor (Homo sapiens, UniProt P43220, L260F); experiment: CHOK1 GLP-1R cAMP Assay; type: cell-based; details: CHO-K1 cell line stably expressing human GLP-1R; HTRF cAMP detection
T1 construct: expressed in transfected cells; host or cells: CHO-K1 (ATCC CCL-61)
T1 sequence (P43220 24-463 L260F): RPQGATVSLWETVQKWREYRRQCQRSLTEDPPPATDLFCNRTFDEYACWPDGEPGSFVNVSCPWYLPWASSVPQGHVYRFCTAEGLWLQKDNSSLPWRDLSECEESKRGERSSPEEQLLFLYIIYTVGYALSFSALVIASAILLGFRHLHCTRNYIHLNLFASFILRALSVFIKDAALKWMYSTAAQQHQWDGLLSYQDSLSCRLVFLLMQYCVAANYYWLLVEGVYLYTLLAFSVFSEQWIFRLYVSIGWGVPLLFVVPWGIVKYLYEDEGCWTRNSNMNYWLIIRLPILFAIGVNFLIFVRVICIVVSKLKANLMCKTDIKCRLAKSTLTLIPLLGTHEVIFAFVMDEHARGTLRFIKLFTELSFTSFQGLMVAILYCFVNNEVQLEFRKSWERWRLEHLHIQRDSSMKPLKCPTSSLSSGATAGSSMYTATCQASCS
Protocol: A cell line stably expressing the human GLP-1R receptor (NM_002062.5, including the naturally-occurring variant Leu260Phe) in a CHO-K1 (ATCC® CCL-61™) was used for assay.
GLP-1 Receptor mediated agonist activity was determined in a cell based assay measuring cAMP levels in cells using Homogeneous Time-Resolved Fluorescence (HTRF) cAMP detection kit (CisBio catalog #62AM4PEC, cAMP Gs Dynamic range kit). The cAMP detection method is based on a competitive immunoassay, in which cAMP produced by the cells and cAMP labeled with the dye d2 compete for binding to a Europium-Cryptate-labeled anti-cAMP antibody. The specific HTRF signal is inversely proportional to the concentration of cAMP.
Compounds were added to individual well in 384 well-assay plates (Greiner #784076) using an Echo (LabCyte) dispenser from 10 mM stocks. Varying concentration of compounds were added to wells, and dimethyl sulfoxide was used to normalize each well to a volume of 100 nanoliter. A dose response curve of GLP1(7-36)NH2 (Bachem H-6795) was included in each run. 5 μL of cAMP concentration response standards are applied in specified wells in the assay plates.
Cryo-preserved cells are thawed and resuspended in assay buffer pre-heated to 37° C. (20 mM 2-[4-(2-hydroxyethyl)piperazin-1-yl]ethanesulfonic acid (HEPES) pH 7.4, lx Hank's Balanced Salt Solution (HBSS, Life Technologies #14065) supplemented with 0.1% (w/v) bovine serum albumin (Sigma, A-7030)). Cells were centrifuged at 250*g for 5 min at room temperature, and resuspend in room tempered assay buffer to a final density of 0.16*10^6 cell/mL, to deliver 800 cells/well. 5 μL of assay buffer with 1 mM 3-isobutyl-1-methylxanthin (IBMX; Sigma cat I-7018) was dispensed per well in assay plates using a multidrop combi (Thermo Scientific) subsequently 5 μL of cell suspension was distributed to relevant wells in the assay using a multidrop dispenser. Assay plates were incubated 20 min at room temperature.
Detection reagents, Europium-Cryptate-labeled anti-cAMP antibody and cAMP labeled with the dye d2, are diluted in lysis buffer, provided by the manufacturer. 5 μL of each detection reagent is supplemented to each assay well using a multidrop dispenser. Assay plates are incubated in the dark for at least one hour. The HTRF signal is measured using the HTRF module (excitation: 337 nm, emission A: 665 nm and emission B: 620 nm) in Pherastar FSX (BMG Labtech).
Raw data were converted to pM cAMP using the cAMP standard curve included in each run. Converted data were further analyzed in Genedata Screener (Genedata) and EC50 determinations were made from agonist dose-response curves analyzed with a curve fitting program using a 4-parameter logistic dose response equation (Equation y=A+((B−A)/1+((C/x)^D))) where A is no stimulation, B is full stimulation, C is the EC50 and D is the Hill slope). The percent effect was determined relative to a saturating concentration of a full GLP-1R agonist (GLP1(7-36)NH2 has 100% effect in this assay setup).

[1] = biological target: T2, endogenous human glucagon-like peptide 1 receptor (GLP-1R) (Homo sapiens, UniProt P43220); experiment: EndoC cAMP Accumulation Assay; type: cell-based; details: EndoC-βH1 human pancreatic β cell line; HTRF cAMP assay
T2 construct: endogenous human glucagon-like peptide 1 receptor (GLP-1R) in a pancreatic insulinoma cell line; host or cells: EndoC-βH1 human pancreatic β cell line
T2 sequence (P43220 24-463): as the sequence (P43220 24-463 L260F) above, with F237L counted along it
Description: EndoC cAMP Accumulation Assay
A HTRF (Homogeneous Time-Resolved Fluorescence) cAMP assay (cAMP Gs dynamic kit; CisoBio Cat #62AM4PEJ) was used to identify agonists of the endogenous human glucagon-like peptide 1 receptor (GLP-1R) in a pancreatic insulinoma cell line (EndoC-βH1). […] EndoC-βH1 cells have detectable GLP-1R mRNA as detected by qPCR^1. […] The EndoC-βH1 cell line is a valid model of human beta cells and applicable for screenings to identify novel drug target candidates (Mol. Metab., 2018, 8, 144-157). CisBio HTRF cAMP kits are based on a competitive immunoassay using cryptate-labelled anti-cAMP antibody and d2-labeled cAMP. The detection kit is intended for the direct quantitative determination of cAMP. The specific signal (i.e. energy transfer) is inversely proportional to the concentration of cAMP in the standard or sample. Test compounds (10 mM in DMSO) were diluted into assay buffer (HBSS (Sigma #H8264) supplemented with 25 mM HEPES (Gibco #15630, pH 7.4), 0.1% BSA (Sigma #A3059) and 0.5 mM IBMX (Sigma #I7018) included fresh on the day of the assay) into 96 well U-bottom plates (Greiner #650201). Diluted compounds were transferred to ECHO source PP plates (Labcyte #P-05525) and dose response curves were dispensed acoustically using ECHO 550 into black shallow-well u-bottom 384-well HTRF Assay Plates (Corning 4514).
Cryovials of EndoC-H1 (supplied at 1×10e^7 cells/vial) were used directly for screening. The cryovials and were removed from LN2 and thawed rapidly in a 37° C. water bath. The cells were resuspended in assay buffer and centrifuged at 300 g for 5 min. Cells were resuspended in assay buffer at the appropriate concentration, typically at 12e5 cells per mL (3000 cells per well, dependent on cell batch) and 2.5 μL diluted cells were added to all wells of destination plate by Multidrop combi reagent dispenser (Thermofisher). The plates were incubated at room temperature for 30 min. The assay was stopped by adding 2.5 μL anti-cAMP cryptate solution to all wells and 2.5 μL cAMP-d2 solution (both diluted 1:20 in lysis buffer) to columns 1-22 by Combi drop. A volume of 2.5 μL cAMP-d2 solution was added to wells E23 to P24 and 2.5 μL lysis buffer added to wells A23 to D24 by multichannel pipette. The plates were incubated at room temperature for 1 hr and read on an Envision plate reader using excitation wavelength of 320 nm and emission of 590 nm and 660 nm.
Raw data from Envision is converted to % DeltaF according to the manufacturer's instructions. Dose response curves are analysed via 4-Parameter Logistical Analysis and assay plate Z′ values obtained. Samples are graphed as percentage (%) activation plots compared to GIP (1-42, Bachem H-5645) with assay window defined by negative control as basal cell cAMP levels and positive control are defined by maximum GIP (82.5 nM) signal. GLP1 (7-36 amide, Bachem H-6795) dose response curve was included on all plates.

SMILES | pEC50 (human GLP-1R receptor) | pEC50 [1]
Cc1nccn1CCn1c(CN2CCN(c3cccc4c3O[C@@](C)(c3ccc(Cl)cc3F)O4)[C@@H]3COC[C@@H]32)nc2c(F)cc(C(=O)O)cc21 (single isomer, unassigned) [Example 17] | 7.85 | 8.35
C[C@]1(c2ccc(Cl)cn2)Oc2cccc(N3CCN(Cc4nc5ccc(C(=O)O)cc5n4C[C@@H]4CCO4)[C@H]4COC[C@H]43)c2O1 (relative stereo) [Example 5a, 2-((4aR*,7aS*)-4-((R*)-2-(5-Chloropyridin-2-yl)-2-methylbenzo[d][1,3]dioxol-4-yl)hexahydrofuro[3,4-b]pyrazin-1(2H)-yl)methyl)-1-(((S)-oxetan-2-yl)methyl)-1H-benzo[d]imidazole-6-carboxylic acid] | 6.74 | 5.89
C[C@]1(c2ccc(Cl)cc2F)Oc2cccc(N3CCN(Cc4nc5ccc(C(=O)O)cc5n4C[C@@H]4CCO4)[C@H]4COC[C@H]43)c2O1 (single isomer, unassigned) [Example 6c, 2-(((4aR*,7aS*)-4-((R*)-2-(4-Chloro-2-fluorophenyl)-2-methylbenzo[d][1,3]dioxol-4-yl)hexahydrofuro[3,4-b]pyrazin-1(2H)-yl)methyl)-1-(((S)-oxetan-2-yl)methyl)-1H-benzo[d]imidazole-6-carboxylic acid] | 7.41 | 6.82
C[C@]1(c2ccc(Cl)cc2F)Oc2cccc(N3CCN(Cc4nc5ccc(C(=O)O)cc5n4CCn4cccn4)[C@H]4COC[C@H]43)c2O1 (single isomer, unassigned) [Example 7c] | 6.96 | 5.41
C[C@]1(c2ccc(Cl)cc2F)Oc2cccc(N3CCN(Cc4nc5c(Cl)cc(C(=O)O)cc5n4C[C@@H]4CCO4)[C@H]4COC[C@H]43)c2O1 (single isomer, unassigned) [Example 15c, 4-Chloro-2-(((4aR*,7aS*)-4-((R*)-2-(4-chloro-2-fluorophenyl)-2-methylbenzo[d][1,3]dioxol-4-yl)hexahydrofuro[3,4-b]pyrazin-1(2H)-yl)methyl)-1-(((S)-oxetan-2-yl)methyl)-1H-benzo[d]imidazole-6-carboxylic acid] | 6.82 | 6.25
COc1cc(C(=O)O)cc2c1nc(CN1CCN(c3cccc4c3O[C@@](C)(c3ccc(Cl)cn3)O4)[C@@H]3COC[C@@H]31)n2C[C@@H]1CCO1 (single isomer, unassigned) [Example 1a, 2-(((4aR*,7aS*)-4-((R*)-2-(5-Chloropyridin-2-yl)-2-methylbenzo[d][1,3]dioxol-4-yl)hexahydrofuro[3,4-b]pyrazin-1(2H)-yl)methyl)-4-methoxy-1-(((S)-oxetan-2-yl)methyl)-1H-benzo[d]imidazole-6-carboxylic acid] | 6.85 | 6.68
C[C@]1(c2ccc(Cl)cc2F)Oc2cccc(N3CCN(Cc4nc5c(F)cc(C(=O)O)cc5n4Cc4cocn4)[C@H]4COC[C@H]43)c2O1 (single isomer, unassigned) [Example 20b] | 8.14 | 8.00
C[C@]1(c2ccc(Cl)cc2F)Oc2cccc(N3CCN(Cc4nc5c(F)cc(C(=O)O)cc5n4C[C@@H]4CCO4)[C@H]4COC[C@H]43)c2O1 (single isomer, unassigned) [Example 16b, 2-(((4aR*,7aS*)-4-((R*)-2-(4-Chloro-2-fluorophenyl)-2-methylbenzo[d][1,3]dioxol-4-yl)hexahydrofuro[3,4-b]pyrazin-1(2H)-yl)methyl)-4-fluoro-1-(((S)-oxetan-2-yl)methyl)-1H-benzo[d]imidazole-6-carboxylic acid] | 6.92 | 6.57
C[C@]1(c2ccc(Cl)cn2)Oc2cccc(N3CCN(Cc4nc5ccc(C(=O)O)cc5n4C[C@@H]4CCCO4)[C@H]4COC[C@H]43)c2O1 (single isomer, unassigned) [Example 8b, 2-(((4aR*,7aS*)-4-((R*)-2-(5-Chloropyridin-2-yl)-2-methylbenzo[d][1,3]dioxol-4-yl)hexahydrofuro[3,4-b]pyrazin-1(2H)-yl)methyl)-1-(((S)-tetrahydrofuran-2-yl)methyl)-1H-benzo[d]imidazole-6-carboxylic acid] | 6.28 | 5.96
C[C@@]1(c2ccc(Cl)cc2F)Oc2cccc(N3CCN(Cc4nc5c(Cl)cc(C(=O)O)cc5n4C[C@@H]4CCO4)[C@@H]4COC[C@@H]43)c2O1 (relative stereo) [Example 15a, 4-Chloro-2-(((4aR*,7aS*)-4-((R*)-2-(4-chloro-2-fluorophenyl)-2-methylbenzo[d][1,3]dioxol-4-yl)hexahydrofuro[3,4-b]pyrazin-1(2H)-yl)methyl)-1-(((S)-oxetan-2-yl)methyl)-1H-benzo[d]imidazole-6-carboxylic acid] | 8.96 | 8.72
C[C@]1(c2ccc(Cl)cn2)Oc2cccc(N3CCN(Cc4nc5ccc(C(=O)O)cc5n4C[C@@H]4CCO4)[C@H]4COC[C@H]43)c2O1 (single isomer, unassigned) [Example 5c, 2-(((4aR*,7aS*)-4-((R*)-2-(5-Chloropyridin-2-yl)-2-methylbenzo[d][1,3]dioxol-4-yl)hexahydrofuro[3,4-b]pyrazin-1(2H)-yl)methyl)-1-(((S)-oxetan-2-yl)methyl)-1H-benzo[d]imidazole-6-carboxylic acid] | 7.00 | 6.21
C[C@]1(c2ccc(Cl)cn2)Oc2cccc(N3CCN(Cc4nc5c(Cl)cc(C(=O)O)cc5n4C[C@@H]4CCO4)[C@H]4COC[C@H]43)c2O1 (single isomer, unassigned) [Example 14a, 4-Chloro-2-(((4aR*,7aS*)-4-((R*)-2-(5-chloropyridin-2-yl)-2-methylbenzo[d][1,3]dioxol-4-yl)hexahydrofuro[3,4-b]pyrazin-1(2H)-yl)methyl)-1-(((S)-oxetan-2-yl)methyl)-1H-benzo[d]imidazole-6-carboxylic acid] | 8.82 | 8.48
